{"source": "paper PMC9589885", "about": "“A designed antimicrobial peptide with potential ability against methicillin resistant Staphylococcus aureus” (Frontiers in Microbiology, 2022)", "key": {"[1]": {"tested_on": "Staphylococcus aureus (SA15192)", "assay": "microbe, parasite or virus in culture", "type": "cell-based", "conditions": "16 h", "description": "(§1) The standard strain of Staphylococcus aureus (S. aureus, ATCC6538), Escherichia coli (E. coli, ATCC25922), Pseudomonas aeruginosa (P. aeruginosa, ATCC9027), Acinetobacter baumannii (A. baumannii, ATCC19606) and Candida albicans (C. albicans, ATCC/0331) used in this experiment was purchased from the microbial strain collection center of Guangdong Province. The methicillin resistant strain of Staphylococcus aureus (MRSA, SAZ) and clinically isolated antibiotic-resistance strains (SA115775 and SA15192) were clinically isolated from the First Affiliated Hospital of Kunming Medical University. The strains of C. albicans were cultured in 1/3 YM Medium (HB0297-1) + 2/3 RPMI 1640 medium (10-040-CVR, Corning), and other bacterial strains were cultured in Luria-Bertani (LB: 2 g tryptone, 1 g yeast extract, 2 g sodium chloride and 200 ml deionized water) broth.\n(§2) Briefly, bacteria strains were diluted and adjusted to the concentration of 2 × 10^5 CFU/ml using RPMI 1640 medium. Samples were prepared as a stock solution in saline, and then diluted to a series of concentrations. 100 μl bacterial suspension and 100 μl samples at the indicated concentration were put together in 96-well plates and incubated at 37°C for 16 h. Finally, an absorbance at 600 nm was measured by a microplate reader to estimate bacterial growth. The MIC was defined as the lowest concentration where the bacterial growth could not be detected completely."}, "[2]": {"tested_on": "methicillin-resistant Staphylococcus aureus (MRSA-Z)", "assay": "microbe, parasite or virus in culture", "type": "cell-based", "conditions": "16 h", "description": "as §1, §2"}, "[3]": {"tested_on": "Staphylococcus aureus (ATCC6538)", "assay": "microbe, parasite or virus in culture", "type": "cell-based", "description": "as §1, §2"}, "[4]": {"tested_on": "Staphylococcus aureus (SA115775)", "assay": "microbe, parasite or virus in culture", "type": "cell-based", "conditions": "16 h", "description": "as §1, §2"}, "[5]": {"tested_on": "Escherichia coli (ATCC25922)", "type": "cell-based", "conditions": "E. coli ATCC25922; broth dilution, 37°C, 16 h", "description": "as §1, §2"}, "[6]": {"tested_on": "Pseudomonas aeruginosa (ATCC9027)", "assay": "MIC, broth dilution", "type": "cell-based", "conditions": "P. aeruginosa ATCC9027, 37°C, 16 h", "description": "as §1\nas §2, with “100 μl bacterial suspension and 100 μl samples at the indicated concentration were put together in 96-well plates and incubated at 37°C for 16 h.” left out"}, "[7]": {"tested_on": "Acinetobacter baumannii (ATCC19606)", "assay": "MIC, broth dilution", "type": "cell-based", "conditions": "A. baumannii ATCC19606, 37°C, 16 h", "description": "as §1\nas §2, with “100 μl bacterial suspension and 100 μl samples at the indicated concentration were put together in 96-well plates and incubated at 37°C for 16 h.” left out"}, "[8]": {"tested_on": "methicillin-resistant S. aureus (MRSA-Z)", "assay": "Bacterial killing kinetic assay", "type": "cell-based, Staphylococcus aureus", "conditions": "1 ×, 5 × and 10 × MIC; RPMI 1640 with 10% FBS, 37°C", "method": "(§3) The bacterial killing kinetic assay was performed according to the previous method with minor modifications ([Wei et al., 2015]). S. aureus (ATCC6538) and methicillin resistant strain of Staphylococcus aureus (MRSA, SAZ) were washed three times with saline and then resuspended with RPMI 1640 medium containing 10% FBS at the concentration of 2 × 10^5 CFU/ml. […] Ten microliter aliquots were extracted at each time point and diluted with fresh broth for 100 times, 100 μl of the dilution was seeded on agar plates. After incubation at 37°C for 24 h, the viable colonies were determined.\n(§4) Ten microliter aliquots were extracted at each time point and diluted with fresh broth for 100 times, 100 μl of the dilution was seeded on agar plates. After incubation at 37°C for 24 h, the viable colonies were determined for the killing kinetic analysis. Data represent mean ± SD values of three independent experiments. *p < 0.05, **p < 0.01, ***p < 0.001."}, "S. aureus (ATCC6538) [9]": {"tested_on": "S. aureus (ATCC6538)", "assay": "Bacterial killing kinetic assay", "type": "cell-based, Staphylococcus aureus", "conditions": "1 ×, 5 × or 10 × MIC; RPMI 1640 with 10% FBS, 37°C; not completely killed in the time given", "method": "as §3, §4"}, "S. aureus (ATCC6538) [10]": {"tested_on": "S. aureus (ATCC6538)", "assay": "Staphylococcus aureus intraperitoneal infection model", "type": "in vivo, C57BL/6 mice", "conditions": "CFU 4 h after administration, n = 6", "method": "S. aureus (ATCC6538) and methicillin resistant strain of Staphylococcus aureus (MRSA, SAZ) were resuspended by saline with the concentration of 1 × 10^9 CFU/ml. […] 2 h later, samples were intraperitoneally injected with the concentration indicated. After 4 h of administration, mice were sacrificed, blood was collected via retro-orbital bleeding and lungs were harvested and homogenized in 1 ml of saline with a hand tissue grinder. 10-fold serial dilutions of the homogenates and blood were made in pyrogen-free NaCl and equal volumes were plated on LB agar plates and incubated at 37°C. CFU were counted after 24 h.\nAfter 4 h of administration, mice were sacrificed, blood (A,C) and lung (B,D) were collected for the measurement of bacterial loads. Data represent mean ± SD values of six independent experiments. *p < 0.05, **p < 0.01, ***p < 0.001."}, "C57BL/6 mice": {"tested_on": "C57BL/6 mice", "assay": "In vivo acute toxicity assay", "parameters": "species or system mouse", "conditions": "single dose 20 mg/kg and 40 mg/kg, intravenous (tail vein), male C57BL/6, n = 10, recorded 12-72 h", "method": "Male C57BL/6 mice aged 6–8 weeks were randomly divided into 2 groups with 10 mice in each group. […] Then the death of mice was recorded at 12 h, 24 h, 36 h, 48 h, 60 h and 72 h, respectively.\n[picture] Supplementary Figure 1. […] Male C57BL/6 mice aged 6–8 weeks were randomly divided into 2 groups (n = 10). […] Then the death of mice was recorded at 12 h, 24 h, 36 h, 48 h, 60 h and 72 h respectively."}, "[11]": {"tested_on": "Candida albicans (ATCC/0331)", "type": "cell-based", "conditions": "C. albicans ATCC/0331; broth dilution, 37°C, 16 h", "description": "as §1, §2"}, "HEK293T cells": {"tested_on": "HEK293T cells", "conditions": "up to 169.01 μM, 24 h, CCK8, absorbance 450 nm; 3 independent experiments"}, "[12]": {"tested_on": "human mature red blood cells", "conditions": "1.32–169.01 μM, 30 min, 37°C, absorbance 540 nm, 3 independent experiments", "method": "(§5) Hemolysis of testing sample was calculated as the percentage of Triton X-100-induced hemolysis.\nas §5"}, "in vitro": {"assay": "in vitro", "conditions": "human, human plasma", "procedure": "After incubation for 0, 2, 4, 6, 8 and 10 h at 37°C, an aliquot of 10 μl sample was taken for protein precipitation with an equal volume of 4% H3PO4, the mixture was vortex-mixed for 2 min and then centrifuged at 13000 rpm for 15 min at 4°C. 3 μl of supernatant was analyzed using reverse-phase high performance liquid chromatography (RP-HPLC), and the remaining peptide was calculated through the integrated peak area."}, "[13]": {"tested_on": "S. aureus (ATCC6538, MRSA-Z, SA15192, SA115775)", "conditions": "4.23 mM in 100% human plasma, 0-10 h, 37°C, disk diffusion, zone of inhibition, two independent experiments", "method": "Residual antibacterial activity for each incubation time point was evaluated by disk diffusion assay. In brief, bacteria were seeded on nutrient agar plates, 6 mm paper disks were placed on top and 10 μl aliquots of the plasma-peptide mixture was added to the paper disks. After 24 h incubation, the inhibitory zones against S. aureus (ATCC6538, MRSA-Z, SA15192, SA115775) were measured and recorded.\nData represent mean ± SD of two independent experiments."}}, "note": "Like-named read-outs stand apart in the source and are kept apart here. Residues, ends and D or L forms follow the SMILES beside them."}
{"molecule": "COc1cccc(OC)c1C(=O)N[C@@H]1C(=O)N2[C@@H]1SC(C)(C)[C@@H]2C(=O)O", "note": "[Methicillin, methicillin]", "values": [{"measurement": "MIC", "setting": "[1]; Staphylococcus aureus, clinical isolate SA15192, broth dilution, RPMI 1640, 2 × 10^5 CFU/ml, 37°C, read-out: MIC", "value": 15.5, "unit": "µM"}, {"measurement": "MIC", "setting": "[2]; Staphylococcus aureus, MRSA-Z, broth dilution, RPMI 1640, 2 × 10^5 CFU/ml, 37°C, absorbance 600 nm, read-out: MIC", "value": "> 124", "unit": "µM"}, {"measurement": "MIC", "setting": "[3]; Staphylococcus aureus, S. aureus ATCC6538, broth dilution, RPMI 1640, 2 × 10^5 CFU/ml, 37°C, 16 h, absorbance 600 nm, read-out: MIC", "value": 1.94, "unit": "µM"}, {"measurement": "MIC", "setting": "[4]; Staphylococcus aureus, clinical isolate SA115775, broth dilution, RPMI 1640, 2 × 10^5 CFU/ml, 37°C, read-out: MIC", "value": 62.1, "unit": "µM"}]}
{"molecule": "colistin", "values": [{"measurement": "MIC", "setting": "[5]", "value": 0.56, "unit": "µM"}, {"measurement": "MIC", "setting": "[6]", "value": 0.56, "unit": "µM"}, {"measurement": "MIC", "setting": "[7]", "value": 0.56, "unit": "µM"}]}
{"molecule": "CN[C@H](CC(C)C)C(=O)N[C@H]1C(=O)N[C@@H](CC(N)=O)C(=O)N[C@H]2C(=O)N[C@H]3C(=O)N[C@H](C(=O)N[C@H](C(=O)O)c4cc(O)cc(O)c4-c4cc3ccc4O)[C@H](O)c3ccc(c(Cl)c3)Oc3cc2cc(c3O[C@@H]2O[C@H](CO)[C@@H](O)[C@H](O)[C@H]2O[C@H]2C[C@](C)(N)[C@H](O)[C@H](C)O2)Oc2ccc(cc2Cl)[C@H]1O", "note": "[Vancomycin, vancomycin]", "values": [{"measurement": "MIC", "setting": "[1]; Staphylococcus aureus", "value": 2.16, "unit": "µM"}, {"measurement": "MIC", "setting": "[2]; Staphylococcus aureus, MRSA", "value": 0.54, "unit": "µM"}, {"measurement": "MIC", "setting": "[3]; Staphylococcus aureus, ATCC6538, 16 h", "value": 1.08, "unit": "µM"}, {"measurement": "MIC", "setting": "[4]; Staphylococcus aureus", "value": 1.08, "unit": "µM"}, {"measurement": "Time to completely kill the MRSA-Z", "setting": "[8]", "value": 240, "unit": "min"}, {"measurement": "Time to completely kill the S. aureus", "setting": "S. aureus (ATCC6538) [9]", "value": "> 240", "unit": "min"}, {"measurement": "Dissemination of S. aureus (ATCC6538) from the peritoneal cavity to the blood", "setting": "S. aureus (ATCC6538) [10]; GW18 2, 4, 8 mg/kg or vancomycin 2, 4 mg/kg ip 2 h after infection (2 × 10^8 CFU/mouse ip)", "value": "significantly suppressed"}, {"measurement": "Dissemination of S. aureus (ATCC6538) from the peritoneal cavity to the lung", "setting": "S. aureus (ATCC6538) [10]; GW18 2, 4, 8 mg/kg or vancomycin 2, 4 mg/kg ip 2 h after infection", "value": "significantly suppressed"}]}
{"molecule": "C[C@H](NC(=O)CNC(=O)[C@H](Cc1c[nH]c2ccccc12)NC(=O)CN)C(=O)N[C@@H](CCCCN)C(=O)N[C@@H](CCCNC(=N)N)C(=O)N[C@@H](Cc1c[nH]c2ccccc12)C(=O)NCC(=O)N[C@@H](CCCCN)C(=O)N[C@@H](CCCNC(=N)N)C(=O)NCC(=O)N[C@@H](Cc1c[nH]c2ccccc12)C(=O)N[C@@H](CCCCN)C(=O)N[C@@H](Cc1c[nH]c2ccccc12)C(=O)N[C@@H](CCCCN)C(=O)N[C@@H](CCCNC(=N)N)C(=O)N[C@@H](Cc1c[nH]cn1)C(=O)N[C@@H](Cc1c[nH]c2ccccc12)C(N)=O", "note": "[GW18] (H-GWGAKRWGKRGWKWKRHW-NH2)", "values": [{"measurement": "Acute toxicity (death of mice)", "setting": "C57BL/6 mice", "value": "no acute toxicity"}, {"measurement": "MIC", "setting": "[5]", "value": 5.28, "unit": "µM"}, {"measurement": "MIC", "setting": "[11]", "value": ">20", "unit": "µM"}, {"measurement": "MIC", "setting": "[1]; clinical isolate SA15192, broth dilution, RPMI 1640, 2 × 10^5 CFU/ml, 37°C, read-out: MIC", "value": 1.32, "unit": "µM"}, {"measurement": "MIC", "setting": "[2]; MRSA-Z, broth dilution, RPMI 1640, 2 × 10^5 CFU/ml, 37°C, absorbance 600 nm, read-out: MIC", "value": 1.32, "unit": "µM"}, {"measurement": "MIC", "setting": "[3]; S. aureus ATCC6538, broth dilution, RPMI 1640, 2 × 10^5 CFU/ml, 37°C, 16 h, absorbance 600 nm, read-out: MIC", "value": 1.32, "unit": "µM"}, {"measurement": "MIC", "setting": "[4]; clinical isolate SA115775, broth dilution, RPMI 1640, 2 × 10^5 CFU/ml, 37°C, read-out: MIC", "value": 1.32, "unit": "µM"}, {"measurement": "Cytotoxicity on HEK293T", "setting": "HEK293T cells", "value": "no obvious cytotoxicity"}, {"measurement": "Hemolytic activity", "setting": "[12]", "value": "no obvious hemolytic activity"}, {"measurement": "remaining at 10 h, 4.23 μM", "setting": "in vitro", "value": 57.6, "unit": "%"}, {"measurement": "Antibacterial activity against S. aureus after incubation in human plasma", "setting": "[13]", "value": "did not significantly affect"}]}
